Data on 64 compounds can be found in a melting point compilation (Tetko et al.; mined from patent text by program, amines drawn as free bases though some values may be those of a salt).

Compound `CC(C)(C)C(=O)Nc1ccc(-c2nc3n(c2-c2ccc(NC(=O)C(C)(C)C)cc2)CCS3)cc1` came in with a melting point of 210 to 215 °C.

`ON=C1CCC(C2CCCC2)=C1c1cccc(O)c1` yielded a melting point of 207 to 209 °C.

Take `CCOC(=O)CCCCCCCCCCNC(=O)CN(CCN(CCN(CC(=O)O)CC(=O)O)CC(=O)O)CC(=O)O`: the melting point was 155 to 157 °C.

`O=C1ON(c2ccccc2Cl)C(c2ccccc2)C1c1ccccc1` (centres undefined) returned a melting point of 178 to 180 °C.

Compound `O=C(Cl)c1ccc(OC(=O)c2cccc(C(=O)Oc3ccc(C(=O)Cl)cc3)c2)cc1` yielded a melting point of 204 °C.

In the case of `COc1ccc2c(c1)-c1noc(O)c1CC2`, the melting point is 135 to 138 °C.

The compound `CC(C)N(CCC12CC3CC(CC(C3)C1)C2)C(=O)NCCCc1ccncc1` came in with a melting point of 132 to 134 °C.

Regarding `C=CS(=O)(=O)NCc1ccc(OC)cc1`, the melting point lay within 68 to 69 °C.

On to `CCOC(=O)C1=C(C=O)Nc2ccnc(OC(C)C)c2C1c1ccccc1` (centres undefined), for which the melting point was 132 to 135 °C.

As for `Cn1ccc2ccc(-c3ccc(C(F)(F)F)cc3)cc21`, the melting point worked out at 100 °C.

`CSc1sc(-c2nccs2)c2c1-c1oncc1CC2` returned a melting point of 165 to 168 °C.

The compound `COC(=O)Cn1c(Cc2ccccc2)ccc(NC(=O)CCCc2ccccc2)c1=O` showed a melting point of 93 to 95 °C.

In turn, `Oc1c(C2CCCC2)cc(C2CCCC2)cc1C1CCCC1` displayed a melting point of 104 °C.

The compound `COc1ccccc1C(=O)CC(=O)c1ccccc1O` came in with a melting point of 80 to 84 °C.

Turning to `O=c1[nH]c2cc(-c3ccncc3)ccc2c(=O)o1`, the melting point is 265 to 267 °C.

`CC1(C)CCc2c1cc(C=O)c(O)c2Br` yielded a melting point of 77.5 to 78.5 °C.

As to `OCc1cccc(-c2ccc3nc(-c4coc5ccccc45)cn3c2)c1`, the melting point was in the range of 150 to 152 °C.

Consider `Cc1cc2cnnc(OCc3ccccc3)c2n1Cc1ccccc1`, for which the melting point was 124 °C.

For `CCOc1ncc(NC(=O)Nc2c(CC)cccc2CC)c(-c2ccccc2Cl)n1`, the melting point lay within 190 to 191 °C.

Consider `COC(=O)c1c(-c2ccccc2Cl)c2cc(C)cc(C)c2n(C)c1=O`, for which the melting point was 128 to 129 °C.

The compound `Cc1c(N2CC[C@@H](C3(NC(=O)OC(C)(C)C)CC3)C2)cc(O)c2c(=O)c(C(=O)O)cn([C@@H]3C[C@@H]3F)c12` returned a melting point of 203 to 206 °C.

The compound `COC(=O)c1cc(-c2nc(COc3ccc(CCl)cc3OC)c(C)o2)ccc1C` showed a melting point of 139 to 140 °C.

In the case of `C[C@@H]1CN(CC(=O)Nc2ccccc2C(F)(F)F)C[C@H](C)N1c1ncnc2sccc12`, the melting point was in the range of 154 to 155 °C.

As to `C=CCC(C)(C)C(O)C(c1cccc(Cl)c1)n1ccnc1` (centres undefined), the melting point turned out to be 95 °C.

`CCC1Sc2cc(Br)ccc2NC1=O` (centres undefined) returned a melting point of 100 °C.

`Nc1ccc(C(O)c2ccccn2)cc1` (centres undefined) displayed a melting point of 139 to 140 °C.

As to `COc1ccc(CNc2nc(N)n3nc(-c4ccco4)nc3n2)cc1OCc1ccccc1`, the melting point lay within 173 to 175 °C.

As for `COc1ncc(S(C)(=O)=O)cc1Br`, the melting point is 148 to 150 °C.

In the case of `O=C1CCC(c2ccc3[nH]c(-c4ccccc4Cl)cc3c2)=NN1`, the melting point was in the range of 236 to 239 °C.

The compound `CC1(C)CS(=O)(=O)c2ccccc2C1c1cncnc1S(C)(=O)=O` (centres undefined) displayed a melting point of 202 to 208 °C.

`CN(C)C(=O)CCC12CC(c3ccccc31)c1ccccc12`: the melting point lay in the range of 186 to 187 °C.

As to `CCc1c([N+](=O)[O-])c(C(N)=O)nn1CCN1CCOCC1`, the melting point was in the range of 132 to 133 °C.

As for `CN1CCN(c2cc(C(=O)Nc3ccc4c(c3)-c3c(c(C(N)=O)nn3-c3ccc5c(c3)OCO5)CC4)c(Cl)cn2)CC1`, the melting point is 305 to 307 °C.

In the case of `N#CC(N)=C(C#N)N=Cc1cnn(-c2ncc(C(F)(F)F)cc2Cl)n1`, the melting point fell in the range of 220 to 222 °C.

Take `Cc1cccc(NC(=O)NCC(=O)N(CC(=O)O)c2ccccc2)c1`: the melting point amounted to 188 °C.

As to `CC(=O)Nc1nc(OC(C)C)c2nc(Cl)ccc2n1`, the melting point amounted to 244 °C.

In turn, `CCOC(=O)CCC(Oc1cc(OCc2ccsc2)ccc1C(N)=S)c1ccccc1C` (racemic) displayed a melting point of 134 to 135 °C.

In turn, `O=C1CCC(N2C=Nc3ccccc3CC2)C(=O)N1` (centres undefined) registered a melting point of 84 to 91 °C.

`O=C(Nc1ccc(C(=O)N2CCc3cn[nH]c3-c3ncccc32)cc1)c1ccccc1-c1ccccc1`: the melting point lay within 250 to 251 °C.

As for `O=C1CC(Nc2ccccc2)C(=O)N1c1ccccc1` (centres undefined), the melting point lay in the range of 211 to 214 °C.

For the compound `Nc1ccc2nc3c(=O)[nH][nH]c(=O)c3c(O)c2c1`, the melting point lay in the range of 219 to 221 °C.

Compound `O=c1c2cc(F)ccc2nc(C(S)c2ncnc3[nH]cnc23)n1-c1ccccc1Cl` (centres undefined) gave a melting point of 233 °C.

The compound `COC(=O)C(C)(C)COc1ccc(CNC(=O)C2Cc3ccccc3N2S(=O)(=O)c2ccc(-c3ccccc3C(F)(F)F)cc2)cc1` (centres undefined) showed a melting point of 68 to 75 °C.

`CCCN1C(=O)C2(c3ccccc3)CC(c3ccc([N+](=O)[O-])cc3)(C2)C1=O` came in with a melting point of 144 to 146 °C.

For the compound `CNc1ccnc(Cl)c1N`, the melting point lay in the range of 166 to 168 °C.

Compound `CCN1C=C(C(=O)O)C(=O)CC1c1cccc(Cl)c1` (centres undefined) yielded a melting point of 143 to 145 °C.

Turning to `N#Cc1ccc(Oc2nc(Nc3cccc(C(=O)O)c3)nc(Oc3ccccc3)n2)cc1`, the melting point was found to be 150 °C.

With `C=C1CC(C)(O)CCC2=C(C)CCC12` (centres undefined), the melting point stood at 54 °C.

Consider `Cc1ccc2c(-c3cc(C(C)(C)C)c(O)c(C(C)(C)C)c3)nn(C)c2n1`, for which the melting point is 178 to 181 °C.

As for `CCOC(=O)c1cn(C)nc1OCc1ccc(OCc2nc(-c3ccco3)oc2C)c(OC)c1`, the melting point was in the range of 117 to 118 °C.

Compound `NS(=O)(=O)Oc1cc(Cl)cc(Cl)c1` came in with a melting point of 146 to 147 °C.

Take `O=C1C2=C(C(=O)c3ccccc31)C(=O)C1CC(Cl)=CCC1C2=O` (centres undefined): the melting point fell in the range of 221 to 222 °C.

For `COC(=O)c1ccccc1NS(=O)(=O)NC(C)C`, the melting point is 106 to 108 °C.

Take `CCCCCCC(CO)c1nc([N+](=O)[O-])c[nH]1` (centres undefined): the melting point lay within 83 to 84 °C.

`O=C1CCC(c2ccc(N=Cc3ccc(C(F)(F)F)cc3)cc2)=NN1`: the melting point was in the range of 245 to 247 °C.

For `CCn1c(-c2ccccc2)c(C2=CCC(C(=O)O)CC2)c2ccccc21` (centres undefined), the melting point was in the range of 147 to 150 °C.

In the case of `CC(C)C1(C(C)C)CC(c2ccc(N)cc2)=CC=C1N`, the melting point stood at 288 °C.

Compound `CNc1ccc2sc3ccc(Br)cc3c(=O)c2c1` came in with a melting point of 198 to 200 °C.

In the case of `COC(=O)c1ccc(CNC(C)=O)cc1`, the melting point lay within 110 to 111 °C.

`Cc1ncc2c(n1)-c1ccc(Cl)cc1C(c1ccccc1Cl)N(C)C2` (centres undefined): the melting point is 155 to 156 °C.

`O=C1Cc2ccccc2C1(Cc1ccncc1)Cc1ccncc1` gave a melting point of 95 to 96 °C.

As to `CC(=O)NC[C@H]1CN(c2ccc(N3CCC(n4nnnc4CC(=O)N4CCOCC4)CC3)c(F)c2)C(=O)O1`, the melting point lay within 146 to 148 °C.

Consider `O=C(Cc1ccc(O)cc1)OCc1ccccc1`, for which the melting point lay within 70 to 72 °C.

For `Cc1ccc(-c2ccc3c(c2)C=C(C(=O)O)CS3)cc1`, the melting point stood at 244 °C.
